Consider one cell line from the supplement of paper PMC10307832.

What all share (test): relative viability (nuclei count vs DMSO), 5 days (fraction); higher = more cells survive
Compound in the assay “Vemurafenib + Pemetrexed”: CCCS(=O)(=O)Nc1ccc(F)c(C(=O)c2c[nH]c3ncc(-c4ccc(Cl)cc4)cc23)c1F [Vemurafenib] + Nc1nc2[nH]cc(CCc3ccc(C(=O)N[C@@H](CCC(=O)O)C(=O)O)cc3)c2c(=O)[nH]1 [Pemetrexed] (partner 0.2 µM)
In a few lines: (§1)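 After 5 days of treatment, lung cancer cells in 1536-well plates were fixed and stained in a single step (final 0.05% Triton X-100, 1% formaldehyde, 1 ug/ml Hoechst) and their nuclei counted on 4× images. Treatment had been applied by pin tool the day after seeding as one drug alone or as a fixed anchor-drug dose with five library-drug doses (not always all listed) in √10 steps. Relative viability is the nuclei count of treated wells divided by that of vehicle wells, and values are medians of duplicate plates.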

Compound in the assay “OSI-027 + Pictilisib”: COc1cccc2cc(-c3nc([C@H]4CC[C@H](C(=O)O)CC4)n4ncnc(N)c34)[nH]c12 [OSI-027] + CS(=O)(=O)N1CCN(Cc2cc3nc(-c4cccc5[nH]ncc45)nc(N4CCOCC4)c3s2)CC1 [Pictilisib] (partner 1 µM)
In a few lines:
as §1

Compound in the assay “Alpelisib + Foretinib”: Cc1nc(NC(=O)N2CCC[C@H]2C(N)=O)sc1-c1ccnc(C(C)(C)C(F)(F)F)c1 [Alpelisib] + COc1cc2c(Oc3ccc(NC(=O)C4(C(=O)Nc5ccc(F)cc5)CC4)cc3F)ccnc2cc1OCCCN1CCOCC1 [Foretinib] (partner 0.25 µM)
In a few lines: as §1

Compound in the assay “Alpelisib + Dasatinib”: Cc1nc(NC(=O)N2CCC[C@H]2C(N)=O)sc1-c1ccnc(C(C)(C)C(F)(F)F)c1 [Alpelisib] + Cc1nc(Nc2ncc(C(=O)Nc3c(C)cccc3Cl)s2)cc(N2CCN(CCO)CC2)n1 [Dasatinib] (partner 0.075 µM)
A digest of the protocol: as §1

For the cell line UMC-11, the relative viability is 0.876 with Vemurafenib + Pemetrexed (first compound 0.03162 µM); 0.662 with Vemurafenib + Pemetrexed (first compound 0.1 µM); 0.717 with Vemurafenib + Pemetrexed (first compound 0.3162 µM); 0.707 with Vemurafenib + Pemetrexed (first compound 1 µM); 0.739 in the assay with OSI-027 + Pictilisib (first compound 0.01 µM); 1.03 in the assay with OSI-027 + Pictilisib (first compound 0.03162 µM). Also, the relative viability in the assay with OSI-027 + Pictilisib (first compound 0.1 µM) worked out at 0.664; with OSI-027 + Pictilisib (first compound 0.3162 µM), 0.636; with OSI-027 + Pictilisib (first compound 1 µM), 0.412; in the assay with Alpelisib + Foretinib (first compound 0.04 µM) it was 1.01; with Alpelisib + Foretinib (first compound 0.1265 µM), 1.05; with Alpelisib + Foretinib (first compound 0.4 µM) it was 1.12. For the same cell line, the relative viability in the assay with Alpelisib + Foretinib (first compound 1.265 µM) stood at 0.839; in the assay with Alpelisib + Foretinib (first compound 4 µM), 0.875; with Alpelisib + Dasatinib (first compound 0.04 µM), 0.426; with Alpelisib + Dasatinib (first compound 0.1265 µM), 0.501; with Alpelisib + Dasatinib (first compound 0.4 µM) it was 0.537; in the assay with Alpelisib + Dasatinib (first compound 1.265 µM), 0.455. The relative viability with Alpelisib + Dasatinib (first compound 4 µM) turned out to be 0.473.
